Holding throughout (assay type): physicochemical
Common to all, as to conditions: Lipid:siRNA 25:1

Data set [1] is described as follows: Ribogreen assay for siRNA encapsulation efficiency of Lipid-Based Particles. As for the experimental part:
The mixing solution of cationic lipids, cholesterol, non-cationic lipids and PEG-lipids was prepared in ethanol (total concentration at 10 mg/mL). siSTABLE (purchased from ThermoFisher) (sense-5′ GGGGAAAGCUGGCAAGAUUUU-3′ SEQ ID NO: 1) antisense-5′-AAUCUUGCCAGCUUUCCCCUU-3′ SEQ ID NO: 2) % stock solution was prepared in 10 mg/mL of solution by dissolving 10 mg siRNA in 1 mL of RNAse-free UltraPure Water. The calculated amount of siRNA solution was added to 1 mL of citrate buffer (pH 4.0, 20 mM), to provide an siRNA concentration of 0.2 mg/mL, and warmed to 60° C. The calculated amount of lipid solution was warmed to 60° C., transferred to a 0.5 mL syringe with 28½ gauge needle, and injected into the citrate buffer with stirring at 60° C. After 3 minutes, 3 mL of PBS solution at room temperature (pH 7.4) was added into the lipid mixture with stirring. The Lipid-Based Particle solution was cooled to room temperature.
(§1) The siRNA concentrations were measured using Quanti-iT RiboGreen RNA reagent (Molecular Probes, (R11490)). Vesicle sizes were characterized by dynamic light scattering with a DynaPro™ Plate Reader (Wyatt Technology) in 96-well half-area UV plate (Coring) after diluting the formulation sample (20 μL) in phosphate buffered saline (80 μL) at a pH of about 7-8. A 1% agarose gel-based assay was used for analyzing nuclease degradation and protection. Encapsulation efficiency (EE) was calculated using data obtained from a RiboGreen assay.
RNA concentration and encapsulation efficiency were determined using a Quant-iT® Ribogreen RNA reagent and kit available from Invitrogen. The siRNA was released from the Lipid-Based Particle using one of the following reagents: ethanol, Triton X-100, or phenol/chloroform. The siRNA concentration is quantified using fluorescent reading at 480 nm/520 nm.
(§2) A round bottom flask was submerged into a 65° C. water bath. Citrate buffer (37.5 ml) of pH 4.0 was pipetted into the flask. The solution was stirred by a magnetic stirring bar at a speed of 900 rpm. Both the pH 4.0 citrate buffer and the lipid solution were pre-warmed in the 65° C. water bath for about 3 minutes. A siRNA solution (0.5 ml) was pipetted into the pH 4.0 citrate buffer. The 12.5 ml lipid mixture solution was injected through a 27 gauge needle into the citrate buffer in about 30 seconds. The needle tip was inserted into the solution during the injection. The resulting solution was stirred for 5 minutes at a speed of 900 rpm. The flask was pulled up from the water bath and a 50 ml pH 7.4 PBS buffer was added into the flask. The final solution was further mixed at a speed of 900 rpm for 5 minutes. For the diafiltration process, a dialysis filter (Millipore, 100K, Cat #PXB100C50) was used to remove ethanol in the above solution. When the volume was reduced to 20 ml during the initial diafiltration, 20 ml of pH 7.4 PBS was added to the sample solution. The diafiltration was continued until the volume was reduced to 20 ml. The diafiltration process was repeated 4 times. The volume of the sample solution was reduced to about 12 ml and pH 7.4 PBS was added to make the final volume of 15 ml. The 15 ml solution was filtered sequentially through the 0.45 and 0.22 μm sterile PVDF membrane filters (Millipore) and immediately transferred into a sterile vial.

A short description of data set [2]: Particle sizing assay of in vitro formulations (dynamic light scattering, DynaPro plate reader). Here is the method: as §1
Particle sizes and size distributions (PDI) were characterized by using dynamic light scattering (DLS). A DLS plate reader (Dynapro™, Wyatt Technology) was used for the DLS measurement. This DLS plate reader uses an 830 nm laser and the scattering angle is 158°. It also can control temperature from 4° C. to 70° C. A 96-well format was employed for the samples.
Samples for DLS analysis were prepared by mixing 20 μL of each sample stock solution with 80 μL PBS directly in the 96-well plate (#3697, Coming). Sample mixing was accomplished using a microplate shaker (Orbis, Mikura Ltd.). Plates were read at 20° C. with an acquisition time of 50 seconds for each sample, and data was analyzed with Wyatt Technology's Dynamics V6 software. To rule out potential multiple scattering artifacts, a second plate at […] reduced sample concentrations was independently prepared by mixing 5 μL stock solutions with 95 μL PBS. Under our experimental conditions the results at the two concentrations were very similar, and the final reported result for each sample represents the average of values obtained from the two plates.

Data set [3] in a line: Particle sizing assay of in vivo formulations (Zetasizer Nano ZS). Here is the method:
as §2
For measurements of particle sizes and size distributions (PDI), lipid-based particles were prepared as described above. The particle solution (60 μL) was pipetted into a disposable cuvette (UVette, Eppendorf, cat #952010051) and measured in the “General Purpose” mode. Attenuator and position were optimized by the device. Measurements were performed using a Zetasizer Nano ZS (Malvern Instruments) equipped with a 4 mW He—Ne laser at a wavelength of 633 nm at 25° C. Scattered light was detected at a 173° backward scattering angle. The viscosity and refractive index of water at 25° C. was used for data analysis with the Dispersion Technology Software 5.00 (Malvern Instruments).

Setting [4] is: in vitro formulation b: Cationic lipid/PEG-Chol/DSPC/Chol 45/10/15/30 wt %.
Setting [5] is: in vivo formulation C: Cationic lipid/Pal-PEG-Cera/DSPC/Chol 45/10/15/30 wt %.
[6] abbreviates: in vivo formulation A: Cationic lipid/Example 58/DSPC/Chol 45/10/15/30 wt %.
[7] abbreviates: in vivo formulation D: Cationic lipid/PEG-DMPE/PEG-DSPE/DSPC/Chol 44/4.5/4.5/14/33 wt %.
The mark [8] stands for this setting: in vitro formulation a: Cationic lipid/Example 56/DSPC/Chol 45/10/15/30 wt %.

As for `CCCCC/C=C\C/C=C\CCCCCCCCOCC(COCCCCCCCC/C=C\C/C=C\CCCCC)NCCN(C)C` [Example 7, N,N-dimethyl-N′-(2-((9Z,12Z)-octadeca-9,12-dienyloxy)-1-(((9Z,12Z)-octadeca-9,12-dienyloxy)methyl)ethyl)ethane-1,2-diamine], the “% Encapsulation Efficiency” value in data set [1] (setting [4]) and in data set [1] (setting [5]) was 91.8% throughout. Moreover, the Size is listed as 130 nm in data set [2] (setting [4]), 123 nm in data set [3] (setting [6]) and 119 nm in data set [3] (setting [5]). The “PDI (size distribution)” value in data set [3] (setting [6]) is recorded as 0.15; in data set [3] (setting [5]) it was 0.128.

Take `CCCCC/C=C\C/C=C\CCCCCCCCOCC(COCCCCCCCC/C=C\C/C=C\CCCCC)CN1CCN(C)CC1` [Example 23, 1-methyl-4-(3-((9Z,12Z)-octadeca-9,12-dienyloxy)-2-(((9Z,12Z)-octadeca-9,12-dienyloxy)methyl)propyl)piperazine]: the “% Encapsulation Efficiency” value in data set [1] (setting [4]) is recorded as 98.1%; in data set [1] (setting [6]), 93.2%. For the same compound, in data set [3] (setting [6]), the “PDI (size distribution)” value was 0.054. Also, in data set [3] (setting [6]), the Size is recorded as 116 nm.

In the case of `CCCCC/C=C\C/C=C\CCCCCCCCOCC(COCCCCCCCC/C=C\C/C=C\CCCCC)N1CCN(C)CC1` [Example 4, 1-methyl-4-(2-((9Z,12Z)-octadeca-9,12-dienyloxy)-1-(((9Z,12Z)-octadeca-9,12-dienyloxy)methyl)ethyl)piperazine], the “% Encapsulation Efficiency” value in data set [1] (setting [4]) came out at 96.7%; in data set [1] (setting [6]), 72.6%. In addition, the Size in data set [2] (setting [4]) is reported as 125.6 nm; in data set [3] (setting [6]), 149 nm. Besides, the “PDI (size distribution)” value in data set [3] (setting [6]) is 0.2.

Consider `CCCCC/C=C\C/C=C\CCCCCCCCOCC(COCCCCCCCC/C=C\C/C=C\CCCCC)NCCCN1CCCC1` [Example 6, N-(2-((9Z,12Z)-octadeca-9,12-dienyloxy)-1-(((9Z,12Z)-octadeca-9,12-dienyloxy)methyl)ethyl)-N-(3-pyrrolidin-1-ylpropyl)amine], for which the “% Encapsulation Efficiency” value in data set [1] (setting [4]) was 84.2%; in data set [1] (setting [6]), 75.5%. In addition, the Size is listed as 132.6 nm in data set [2] (setting [4]) and 121 nm in data set [3] (setting [6]). Further, the “PDI (size distribution)” value in data set [3] (setting [6]) is 0.145.

Turning to `CCCCC/C=C\C/C=C\CCCCCCCCOCC(COCCCCCCCC/C=C\C/C=C\CCCCC)NCCCn1ccnc1` [Example 3, N-(3-(1H-imidazol-1-yl)propyl)-N-(2-((9Z,12Z)-octadeca-9,12-dienyloxy)-1-(((9Z,12Z)-octadeca-9,12-dienyloxy)methyl)ethyl)amine], the “% Encapsulation Efficiency” value in data set [1] (setting [6]) is 87.6%. In data set [3] (setting [6]), this compound showed a Size of 185 nm.

With `CCCCCCCC/C=C\CCCCCCCCOCC(COCCCCCCCC/C=C\CCCCCCCC)NCCCN1CCCC1` [Example 53, N-(2-[(9Z)-octadec-9-enyloxy]-1-{[(9Z)-octadec-9-enyloxy]methyl}ethyl)-N-(3-pyrrolidin-1-ylpropyl)amine], the “% Encapsulation Efficiency” value in data set [1] (setting [4]) and in data set [1] (setting [7]) was 99.0% in each case. Also, the “PDI (size distribution)” value in data set [3] (setting [7]) was 0.089. Further, the Size in data set [3] (setting [7]) is 121.2 nm.

Take `CCCCC/C=C\C/C=C\CCCCCCCCOCC(COCCCCCCCC/C=C\C/C=C\CCCCC)N(C)CCCN1CCCC1` [Example 14, N-methyl-N-(2-((9Z,12Z)-octadeca-9,12-dienyloxy)-1-(((9Z,12Z)-octadeca-9,12-dienyloxy)methyl)ethyl)-N-(3-pyrrolidin-1-ylpropyl)amine]: in data set [1] (setting [4]), the “% Encapsulation Efficiency” value turned out to be 88.3%. Further, in data set [2] (setting [4]), the Size is 128.4 nm.

`CCCCC/C=C\C/C=C\CCCCCCCCOCC(COCCCCCCCC/C=C\C/C=C\CCCCC)NCc1cccc(CN2CCN(C)CC2)c1` [Example 15, N-(3-((4-methylpiperazin-1-yl)methyl)benzyl)-N-(2-((9Z,12Z)-octadeca-9,12-dienyloxy)-1-(((9Z,12Z)-octadeca-9,12-dienyloxy)methyl)ethyl)amine]: in data set [1] (setting [8]), the “% Encapsulation Efficiency” value amounted to 96.2%. The compound further registered a Size in data set [2] (setting [8]) of 116 nm.

With `CCCCC/C=C\C/C=C\CCCCCCCCOCC(COCCCCCCCC/C=C\C/C=C\CCCCC)NCCc1c[nH]cn1` [Example 9, N-(2-(1H-imidazol-4-yl)ethyl)-N-(2-((9Z,12Z)-octadeca-9,12-dienyloxy)-1-(((9Z,12Z)-octadeca-9,12-dienyloxy)methyl)ethyl)amine], the “% Encapsulation Efficiency” value came to 95.8% in data set [1] (setting [4]) and 98.9% in data set [1] (setting [5]). Also, the Size in data set [2] (setting [4]) worked out at 116.8 nm; in data set [3] (setting [6]) it was 138 nm; in data set [3] (setting [5]), 87 nm. In addition, the “PDI (size distribution)” value in data set [3] (setting [6]) is given as 0.13; in data set [3] (setting [5]) it was 0.104.

For `CCCCC/C=C\C/C=C\CCCCCCCCOCC(COCCCCCCCC/C=C\C/C=C\CCCCC)N1CCN(CCN2CCCC2)CC1` [Example 52, 1-(2-[(9Z,12Z)-octadeca-9,12-dienyloxy]-1-{[(9Z,12Z)-octadeca-9,12-dienyloxy]methyl}ethyl)-4-(2-pyrrolidin-1-ylethyl)piperazine], in data set [1] (setting [8]), the “% Encapsulation Efficiency” value is reported as 77.9%. The same compound yielded a Size in data set [2] (setting [8]) of 111.6 nm.

Take `CCCCC/C=C\C/C=C\CCCCCCCCOCC(COCCCCCCCC/C=C\C/C=C\CCCCC)N1CCN(CCCN(C)C)CC1` [Example 10, N,N-dimethyl-N-(3-(4-(2-((9Z,12Z)-octadeca-9,12-dienyloxy)-1-(((9Z,12Z)-octadeca-9,12-dienyloxy)methyl)ethyl)piperazin-1-yl)propyl)amine]: the “% Encapsulation Efficiency” value in data set [1] (setting [4]) is on record as 72.6%. The compound also returned a Size in data set [2] (setting [4]) of 112 nm.

With `CCCCC/C=C\C/C=C\CCCCCCCC(=O)OCC(COC(=O)CCCCCCC/C=C\C/C=C\CCCCC)N1CCN(C)CC1` [Example 21, (9Z,9′Z,12Z,12′Z)-2-(4-methylpiperazin-1-yl)propane-1,3-diyl dioctadeca-9,12-dienoate], the “% Encapsulation Efficiency” value in data set [1] (setting [8]) was determined as 96.6%. The Size in data set [2] (setting [8]) is given as 117.2 nm.

On to `CCCCC/C=C\C/C=C\CCCCCCCCOCC(COCCCCCCCC/C=C\C/C=C\CCCCC)NCCN1CCN(C)CC1` [Example 8, N-(2-(4-methylpiperazin-1-yl)ethyl)-N-(2-((9Z,12Z)-octadeca-9,12-dienyloxy)-1-(((9Z,12Z)-octadeca-9,12-dienyloxy)methyl)ethyl)amine], for which the “% Encapsulation Efficiency” value in data set [1] (setting [4]) was found to be 81.8%. For the same compound, in data set [2] (setting [4]), the Size is 107.6 nm.

The values above are taken from patent publication US20100055168A1, “CATIONIC LIPIDS AND USES THEREOF” (ABBOTT LABORATORIES, priority 2008, published 2010).
